Source: patent US20220312762A1, “USE OF ENCAPSULATED STEROLS TO MODIFY GROWTH OF CROPS, CONTROL, AGRICULTURAL PESTS AND AS NON-TOXIC PRE-EMERGENT HERBICIDES” (The Texas A&M University System, priority 2019, published 2022)

Assays:
Arabidopsis thaliana = test: Arabidopsis growth and development on sterol-supplemented media; type: in vivo; settings: for growth phenotype: 100 μM exogenous sterol; for root anatomy: 100 μM sterol; for biomass: 8-days old seedlings on sterol-supplemented media, high sterol (FIG. 5A, 5B); for chlorophyll levels: plants grown on sterol media (FIG. 4A-4D); for root and root hair growth and development: sterol-supplemented media (FIG. 3A-3E)
Description: (§1) Plants and Plant Growth Conditions. Cholesterol (C3045, Sigma-Aldrich, USA), stigmasterol (S2424, Sigma-Aldrich, USA), and β-sitosterol (567152, Millipore-Sigma, USA) were prepared as stock solutions with a slight modification from that described in literature. Sterols were dissolved in 100% ethanol at 1.5 mM concentration and combined with methyl-β-cyclodextrin (MβCD) (Sigma-Aldrich, USA) at a molar ratio of 1:3 to a final concentration of 1-300 μM sterol and 1-900 μM MβCD. The probe was either sonicated for 30 minutes and vortexed for 15 minutes before use, or just vortexed for 30 min before use. To make a powered water soluble form, the sterol (40-70% w/w β-sitosterol) is dissolved in 100% ethanol and then solubilized in β-cyclodextrins or their derivatives in water. The solution is then reduced by evaporation or freeze-drying to a powdered form.
(§2) The wild-type and transgenic seeds of Arabidopsis thaliana were surface-sterilized with 70% ethanol, rinsed in sterile distilled water (+/− sterol) and incubated at 4° C. in the dark for 48 hr. The imbibed seeds were then planted either planted in Petri dishes or in hydroponic containers. For Petri dish growth, 1% (w/v) agar (Sigma-Aldrich, USA) was dissolved in ½ strength Murashige and Skoog medium containing vitamins (Caisson Labs, USA) (+/− sterol), and the pH was adjusted to between 5.6 and 5.8. The seedlings were grown in vertically placed Petri dishes containing this medium for 5-10 days at 22° C. under the continuous white light (50 μmol m^−2sec^−1 photosynthetically active radiation). Hydroponic culture was a modification of that described in previous literature. The seeds were placed on a mesh inserted into the bottom of a sterile polypropylene 2 oz cup with a lid (TY-M2-100, Bingwu, sold on Amazon) inset into either a 4 oz sterile polypropylene cup (TY-M4-N50 Bingwu, sold on Amazon) or a black 5.5 oz sterile polypropylene Dart Conex cup (B07BK1DPPS, Table Top King, sold on Amazon). Enough medium (½ strength Murashige and Skoog medium containing vitamins (Caisson Labs, USA) (+/− sterol), and the pH was adjusted to between 5.6 and 5.8) was added to bring it up to the level of the mesh. They were grown for […] to maturity (˜75 days) in an 18:6 hr photoperiod at 22° C. with 100 […] photosynthetically active. Following growth, they were then harvested for sterol analysis, leaf venation analysis, or fresh and dry weight analysis, or photographed for image analysis of root, hypocotyl, and stem growth and color. Seed from typical crop plants, Nicotiana tabacum (tobacco) and Zea mays (corn) were also sown in defined medium in the presence and absence of encapsulated sterol to assess percent germination after one week. Common weed seeds (Amaranthus palmeri, Poa annua, and Ambrosia sp.) collected from natural sources were either grown in defined media (agar and Mirashige and Skoog medium) or planted in natural soils (sandy loam) in 2 inch inserts in plastic one foot square flats. They were treated with 100-500 microMolar phytosterol mix (40% β-sitosterol, 20% campesterol, 7% stigmasterol (SKU BSIT100, Bulk Supplements) with a 3:1 molar ratio of methyl-β-cyclodextrin in water. Growth was assessed in treated and untreated (only water) by seedling emergence in days after planting in a greenhouse with natural lighting.
(§3) Materials and Methods. Arabidopsis seeds were given a pre-cold treatment with a mixture of sterol, cholesterol (Sigma-Aldrich) or stigmasterol (Sigma-Aldrich) (1 microMolar, 10 microMolar and 100 microMolar) and methyl-β-cyclodextrin (Sigma-Aldrich) (1:3 ratio) and then planted on Murashige and Skoog-½ strength (Caisson's Lab) 1% agar media supplemented with a mixture of respective sterol and cyclodexterin (1:3 ratio). Common weed seeds (Amaranthus palmeri, Poa annua, and Ambrosia sp.) collected from natural sources were planted in natural soils (sandy loam) in 2 inch inserts in plastic one foot square flats. […]

[1] = system: Arabidopsis thaliana seeds; test: Arabidopsis seed germination on sterol-supplemented media; type: in vivo; settings: for decrease in germination: 100 μM exogenous sterol
Description: as §1, §2, §3

[2] = 10 microMolar encapsulated sterol
[3] = 100 microMolar encapsulated sterol

`CC(C)CCC[C@@H](C)[C@H]1CC[C@H]2[C@@H]3CC=C4C[C@@H](O)CC[C@]4(C)[C@H]3CC[C@]12C` [cholesterol, Cholesterol] was tested, and the vein pattern (Arabidopsis thaliana; 100 μM) was “altered vein pattern”, the growth phenotype (Arabidopsis thaliana) was “severe dwarfism” and the root anatomy (Arabidopsis thaliana) was “altered root anatomy”. For the same compound, the biomass (Arabidopsis thaliana) was “reduced biomass”, the chlorophyll levels (Arabidopsis thaliana) was “change chlorophyll levels” and the “root and root hair growth and development” value (Arabidopsis thaliana) was “alters”. The decrease in germination [1] was 40%, the “seed germination (in words)” value [1, 2] was “seeds germinate” and the “seed germination (in words)” value [1, 3] was “significantly inhibit”. The germination inhibited ([1]; 300 microMolar encapsulated sterol, after a week of growth (FIG. 6A)) was 90%.
With `CC[C@H](/C=C/[C@@H](C)[C@H]1CC[C@H]2[C@@H]3CC=C4C[C@@H](O)CC[C@]4(C)[C@H]3CC[C@]12C)C(C)C` [stigmasterol] the growth phenotype (Arabidopsis thaliana) was “severe dwarfism”, the root anatomy (Arabidopsis thaliana) was “altered root anatomy” and the biomass (Arabidopsis thaliana) was “reduced biomass”. The chlorophyll levels (Arabidopsis thaliana) was “change chlorophyll levels”, the “root and root hair growth and development” value (Arabidopsis thaliana) was “alters” and the decrease in germination [1] was 35%. For the same compound, the “seed germination (in words)” value [1, 2] was “seeds germinate” and the “seed germination (in words)” value [1, 3] was “significantly inhibit”.
